Test results: article PMC5715060, “Key site residues of pheromone-binding protein 1 involved in interacting with sex pheromone components of Helicoverpa armigera” (Scientific Reports, 2017)

Assays:
HarmPBP1 mutant Q64A = HarmPBP1 mutant Q64A (Helicoverpa armigera, UniProt F5ANH9, Q91A); assay: Fluorescence binding assay (1-NPN probe), control mutant Q64A
Description: (§1) Fluorescence binding assays were performed in a reaction system at pH7.4. Probed by 1-NPN, the maximum emission wavelengths of F12A, F36A, W37A, F119A and Q64A were in the range of 390–410 nm, which are similar to that of HarmPBP1 (400 nm).
(§2) Four mutations of HarmPBP1, F12A (mutating phenylalanine to alanine at position 12), F36A (mutating phenylalanine to alanine at position 36), W37A (mutating tryptophan to alanine at position 37) and F119A (mutating phenylalanine to alanine at position 119) were generated by using the Quick-change lightning site-directed mutagenesis kit (Stratagene, USA), and a random mutation, Q64A (mutating glutanine to alanine at position 64) was set as control. The pGEM-T Easy/HarmPBP1 construct was used as template, and the specific primers designed for mutations were also listed in Table 1. The PCR conditions were 95 °C for 30 s, followed by 18 cycles of 95 °C for 30 s, 60 °C for 1 min, 68 °C for 4 min. Valid mutants were sub-cloned into pGEM-T easy vector (Promega, USA). Same expression vector and competent cells were used as the HarmPBP1. The recombinant mutant protein prokaryotic expression and purification were conducted as mentioned above.
(§3) Fluorescence binding assays were conducted on the F-380 fluorescence spectrophotometer (Gangdong Sci. & Tech, Tianjin, China) in a 1-cm light path quartz cuvette to further investigate the binding abilities of the principal pheromone components of H. armigera, Z11-16:Ald and Z9-16:Ald, to mutants. The fluorescent probe N-phenyl- 1-naphthylamine (1-NPN) was dissolved in methanol to yield a 1 mM stock solution. Both of the excitation and emission slit widths were 10 nm. Fluorescence of 1-NPN was excited at 337 nm and the emission spectra were recorded between 390 and 490 nm. Z11-16:Ald and Z9-16:Ald were purchased from Sigma-Aldrich (purity >98%). All chemicals used in this study were dissolved in HPLC purity grade methanol. Fluorescence measurements were performed according to Gu et al.[11]. Dissociation constants of the competitors were calculated from the corresponding IC50 (the ligand concentration displacing 50% of the NPN fluorescence intensity of the HarmPBP1/1-NPN complex) values, using the equation: Ki = [IC50]/(1 + [1-NPN]/K1-NPN), where [1-NPN] is the free concentration of 1-NPN and K1-NPN is the dissociation constant of the HarmPBP1/1-NPN complex.

HarmPBP1 mutant W37A = HarmPBP1 mutant W37A (Helicoverpa armigera, UniProt F5ANH9, W64A); assay: Fluorescence binding assay (1-NPN probe), mutant W37A
Description: as §1, §2, §3

HarmPBP1 mutant F12A = HarmPBP1 mutant F12A (Helicoverpa armigera, UniProt F5ANH9, F39A); assay: Fluorescence binding assay (1-NPN probe), mutant F12A
Description: as §1, §2, §3

HarmPBP1 mutant F119A = HarmPBP1 mutant F119A (Helicoverpa armigera, UniProt F5ANH9, F146A); assay: Fluorescence binding assay (1-NPN probe), mutant F119A
Description: as §1, §2, §3

HarmPBP1 (wild-type) = HarmPBP1 (wild-type) (Helicoverpa armigera, UniProt F5ANH9); assay: Fluorescence binding assay (1-NPN probe), wild-type HarmPBP1; details: for Ki / IC50: wild-type HarmPBP1, pH 7.4; for Ki: calculated from IC50, Ki = [IC50]/(1 + [1-NPN]/K1-NPN), read-out: Ki, dissociation constant; for IC50: mean ± S.E.M, three replicates, read-out: IC50, ligand concentration displacing 50% of the fluorescence intensity of the protein/1-NPN complex
Description: as §1, §3

HarmPBP1 mutant F36A = HarmPBP1 mutant F36A (Helicoverpa armigera, UniProt F5ANH9, F63A); assay: Fluorescence binding assay (1-NPN probe), mutant F36A
Description: as §1, §2, §3

HarmPBP1 mutant F12A, sequence (F5ANH9 entry or part of it F39A): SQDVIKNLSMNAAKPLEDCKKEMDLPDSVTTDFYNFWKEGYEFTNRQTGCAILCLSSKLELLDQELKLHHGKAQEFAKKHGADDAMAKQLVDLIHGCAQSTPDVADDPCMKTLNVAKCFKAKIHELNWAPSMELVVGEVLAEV
HarmPBP1 mutant Q64A, sequence (F5ANH9 entry or part of it Q91A): as the sequence (F5ANH9 entry or part of it F39A) above, with A12F, Q64A counted along it
HarmPBP1 mutant F119A, sequence (F5ANH9 entry or part of it F146A): as the sequence (F5ANH9 entry or part of it F39A) above, with A12F, F119A counted along it
HarmPBP1 mutant W37A, sequence (F5ANH9 entry or part of it W64A): as the sequence (F5ANH9 entry or part of it F39A) above, with A12F, W37A counted along it
HarmPBP1 mutant F36A, sequence (F5ANH9 entry or part of it F63A): as the sequence (F5ANH9 entry or part of it F39A) above, with A12F, F36A counted along it
HarmPBP1 (wild-type), sequence (F5ANH9 entry or part of it): as the sequence (F5ANH9 entry or part of it F39A) above, with A12F counted along it

## c1ccc(Nc2cccc3ccccc23)cc1 [1-NPN, N-phenyl-1-naphthylamine]
HarmPBP1 mutant Q64A
  Kd: 2390 ± 190 nM
HarmPBP1 mutant W37A
  Kd: 1870 ± 180 nM
HarmPBP1 mutant F12A
  Kd: 2100 ± 170 nM
HarmPBP1 mutant F119A
  Kd: 1960 ± 160 nM
HarmPBP1 (wild-type)
  Kd: 1790 ± 140 nM
HarmPBP1 mutant F36A
  Kd: 4050 ± 690 nM

## CCCCCC/C=C\CCCCCCCC=O [Z9-16:Ald, (Z)-9-hexadecenal]
HarmPBP1 mutant Q64A
  IC50: 840 ± 60 nM
  Ki: 580 ± 30 nM
HarmPBP1 mutant W37A
  IC50: 2220 ± 190 nM
  Ki: 1490 ± 130 nM
HarmPBP1 mutant F12A
  IC50: 4630 ± 270 nM
  Ki: 3060 ± 220 nM
HarmPBP1 mutant F119A
  IC50: 6910 ± 490 nM
  Ki: 4610 ± 330 nM
HarmPBP1 (wild-type)
  Ki: 560 ± 50 nM
  IC50: 870 ± 80 nM
HarmPBP1 mutant F36A
  IC50: 980 ± 150 nM
  Ki: 720 ± 110 nM

## CCCC/C=C\CCCCCCCCCC=O [Z11-16:Ald, (Z)-11-hexadecenal]
HarmPBP1 mutant Q64A
  IC50: 1120 ± 210 nM
  Ki: 770 ± 130 nM
HarmPBP1 mutant W37A
  IC50: 2910 ± 120 nM
  Ki: 1950 ± 80 nM
HarmPBP1 mutant F12A
  IC50: 4690 ± 330 nM
  Ki: 3100 ± 130 nM
HarmPBP1 mutant F119A
  IC50: 7660 ± 560 nM
  Ki: 5110 ± 470 nM
HarmPBP1 (wild-type)
  Ki: 670 ± 50 nM
  IC50: 1030 ± 80 nM
HarmPBP1 mutant F36A
  IC50: 1040 ± 60 nM
  Ki: 760 ± 80 nM
